Source: article PMC10385824, “Antiproliferative and Tubulin-Destabilising Effects of 3-(Prop-1-en-2-yl)azetidin-2-Ones and Related Compounds in MCF-7 and MDA-MB-231 Breast Cancer Cells” (Pharmaceuticals, 2023)
Like-named read-outs stand apart in the source and are kept apart here.

Legend:
[1] = system: M14; experiment: NCI-60 SRB screen, melanoma; type: cell-based, human; details: for GI50: Homo sapiens
[2] = system: MCF-7 human breast cancer cells; experiment: cells
[3] = system: SF-268; experiment: NCI-60 SRB screen, CNS cancer; type: cell-based, human; details: 48 h; for GI50: Homo sapiens, five dose 0.01–100 µM
Experimental: The initial NCI 60 cell line screen used the sulforhodamine B (SRB) protein assay, at one dose concentration (10 μM), and subsequently, a five-dose screening in the concentration range 0.01–100 μM was carried out.

[4] = system: UACC-257; experiment: NCI-60 SRB screen, melanoma; type: cell-based, human; details: for GI50: Homo sapiens
[5] = system: MCF-7 cells; experiment: Lactate dehydrogenase (LDH) cytotoxicity assay; type: cell-based, human; details: 10 μM, 72 h, LDH release
Experimental: The cytotoxic effects of the compounds were determined using the CytoTox 96 non-radioactive cytotoxicity assay (Promega) as previously reported. The MCF-7 cells were seeded in 96-well plates and incubated for 24 h. Cells were treated with test compounds 16, 26 and 30 at 10 μM concentration as described in the cell viability assay above. At 72 hr, 20 μL of ‘lysis solution (10X)’ was added to the control wells to ensure 100% death. The cells were incubated for a further 1 hr. Supernatant (50 μL) was removed from each well and transferred to a 96-well plate. Cytotox 96R Reagent (50 μL) was added to each well, and the plate was retained in darkness at 20 °C for 30 min. 50 μL of ‘stop solution’ was then added to each well, and the absorbance was determined at 490 nm using a Dynatech MR5000 plate reader. The cell death (%) at 10 μM was determined.

[6] = HPLC stability study in phosphate buffers; type: physicochemical; details: for half-life at 14.6 µg/mL / remaining at 24 h, 14.6 µg/mL / remaining at 264 h, 14.6 µg/mL: phosphate buffer; for half-life at 14.6 µg/mL: read-out: half-life (t½) (converted); for remaining at 24 h, 14.6 µg/mL: study over 24 h; for remaining at 264 h, 14.6 µg/mL: study over 264 h
[7] = HPLC stability study in plasma; type: in vitro ADME, human; details: buffered plasma (plasma:buffer 1:9); for half-life at 41.3 µg/mL: human blood plasma, read-out: half-life (t½); for remaining at 24 h, 41.3 µg/mL: study over 24 h
Experimental: Analytical high-performance liquid chromatography (HPLC) stability studies were performed as follows using Symmetry® column (C18, 5 µm, 4.6 × 150 mm), Waters 2487 Dual Wavelength Absorbance detector, Waters 1525 binary HPLC pump and Waters 717 plus Autosampler (Waters Corporation, Milford, MA, USA) with detection at 254 nm as previously described. Samples were analysed using mobile phase acetonitrile (80%): water (20%), flow rate (1 mL/min) over 10 min. […] First, 30 µL of compound stock solution was diluted with appropriate buffer (1 mL); sample was shaken and injected immediately. Samples were withdrawn and analysed at the following time points: t = 0 min, 5 min, 30 min, 60 min, 90 min, 120 min, 24 h and 48 h. (ii) Thermal stability: Compound stock solution (1 mL) was placed in a glass vial on a heating block for 4 h at 60 °C. The sample was then cooled, diluted (acetonitrile) and analysed. (ii) Oxidising conditions: H2O2 (3%, 0.2 mL) was added to compound stock solution (0.8 mL). The vial was vortexed and retained at 20 °C, and the sample was analysed at 60, 120 180 and 240 min. (iv) Acidic conditions: HCl (0.1 M, 0.2 mL) was added to stock solutions (0.8 mL). The vial was mixed by vortex and retained at 20 °C. A sample was neutralised with NaOH (0.1 M, 0.2 mL) at 60, 120, 180 and 240 min, followed by HPLC analysis. (v) Alkaline conditions: NaOH (0.1 M, 0.2 mL) was added to stock solution (0.8 mL) of the compound in a vial. The vial was mixed by vortex and retained at 20 °C. A sample was neutralised with HCl (0.1 M, 0.2 mL) at 60, 120, 180 and 240 min followed by HPLC analysis. (vi) Photostability study: Compounds (stock solution, 1 mL) were placed in a vial, exposed to UV light for 4 h and then analysed by HPLC as above. Stability studies in plasma: Approval for this study was obtained from the School of Pharmacy and Pharmaceutical Sciences Trinity College Dublin Research Ethics Committee (2020–06-01-MS). Following informed consent, blood was withdrawn from healthy volunteers, and plasma was obtained by centrifugation and kept at −20 °C until further use. […] A sample (250 µL) was then added to the Eppendorf tube containing ZnSO4.7H2O solution (500 µL) (2% w/v ZnSO4 solution in acetonitrile:water, 1:1). The samples were centrifuged (10,000 rpm, 3 min), filtered (0.2 micron filter) and analysed by HPLC as above. Further samples were taken at one-hour intervals.

[8] = system: MCF-7 cells; experiment: Annexin-V/PI apoptosis assay; details: for cells undergoing apoptosis (early+late): 72 h
Experimental: Flow cytometry using annexin-V and propidium iodide (PI) was used to detect apoptotic cell death in MCF-7 cells. […] Cells were then incubated on ice in darkness for 30 min in annexin-V-containing binding buffer [1:100]. Cells were washed once in binding buffer and then re-suspended in propidium iodide containing binding buffer [1:1000]. Cells were analysed directly using the BD Accuri flow cytometer and Prism software. Four cell populations are produced in this assay: annexin-V- and PI-negative (Q4, healthy cells), annexin-V-positive and PI-negative (Q3, early apoptosis), annexin-V- and PI-positive (Q2, late apoptosis) and annexin-V-negative and PI-positive (Q1, necrosis). CA-4 (50 nM) was used as the positive control for apoptosis.
Cells were then collected and processed for analysis.

[9] = system: colchicine-binding site of β-tubulin (Cys239, Cys354) in MCF-7 cells; experiment: Colchicine-binding site assay (EBI crosslinking, Western blot); details: 10 μM, 2 h, then EBI
Experimental: MCF-7 cells were seeded at density of 5 × 10^4 cells/well in 6-well plates and incubated overnight. […] Samples were separated by SDS-PAGE, transferred to polyvinylidene difluoride membranes and examined with β-tubulin antibodies (Sigma-Aldrich, Milwaulkee, WI, USA) [99].
Cells were harvested, lysed and then analysed using sedimentation followed by Western blotting to identify β-tubulin and β-tubulin-EBI adduct.

[10] = MCF7, read-out: Antiproliferative Activity IC50
[11] = M14, five dose 0.01–100 µM, 48 h, read-out: GI50
[12] = UACC-257, five dose 0.01–100 µM, 48 h, read-out: GI50
[13] = MCF7, 72 h, read-out: cell viability
[14] = Homo sapiens, MCF7, 72 h, read-out: Viable

C=C/C=C/C1C(=O)N(c2cc(OC)c(OC)c(OC)c2)C1c1ccc(OC)c(N)c1 (stereo not drawn) [11r, (E)-4-(3-Amino-4-methoxyphenyl)-3-(buta-1,3-dien-1-yl)-1-(3,4,5-trimethoxyphenyl)azetidin-2-one]
GI50 ([1]; M14, 48 h): 22.3 nM
IC50 [2, 10]: 36 ± 5 nM

COc1ccc(C2C(C(C)C)C(=O)N2c2cc(OC)c(OC)c(OC)c2)cc1OP(=O)(O)O (stereo not drawn) [15b, 5-(3-Isopropyl-1-(3,4,5-trimethoxyphenyl)-4-oxoazetidin-2-yl)-2-methoxyphenyl dihydrogen phosphate]
GI50 [3]: 447 nM
GI50 [1, 11]: 291 nM
GI50 [4, 12]: > 100000 nM
IC50 ([2]; MCF7, 72 h, read-out: Antiproliferative Activity IC50): 145000 ± 7760 nM

C=C(C)C1C(=O)N(c2cc(OC)c(OC)c(OC)c2)C1c1ccc(OC)c(N)c1 (stereo not drawn) [9s, 4-(3-Amino-4-methoxyphenyl)-1-(3,4,5-trimethoxyphenyl)-3-(prop-1-en-2-yl)azetidin-2-one]
GI50 [1, 11]: 24.8 nM
GI50 [4, 12]: > 100000 nM
IC50 ([2]; MCF7, MCF-7): 33 nM

C=C(C)C1C(=O)N(c2cc(OC)c(OC)c(OC)c2)C1c1ccc(OC)c(O)c1 (stereo not drawn) [9q, 4-(3-Hydroxy-4-methoxyphenyl)-1-(3,4,5-trimethoxyphenyl)-3-(prop-1-en-2-yl)azetidin-2-one]
cell death [5]: 32%
half-life at 14.6 µg/mL ([6]; pH 4): 13 h
half-life at 14.6 µg/mL ([6]; pH 7.4): 13 h
half-life at 14.6 µg/mL ([6]; pH 9): 6 h
remaining at 24 h, 14.6 µg/mL ([6]; pH 4.0): 33%
remaining at 24 h, 14.6 µg/mL ([6]; pH 7.4): 35%
remaining at 24 h, 14.6 µg/mL ([6]; pH 9.0): 34%
half-life at 41.3 µg/mL [7]: > 24 h
remaining at 24 h, 41.3 µg/mL ([7]; human, Plasma): 80%
GI50 [3]: 22.9 nM
% Growth ([3]; one dose 10 µM): 19.27%
GI50 [1, 11]: 17.3 nM
% Growth ([1]; M14, one dose 10 µM, 48 h): 3.41%
% Growth ([4]; UACC-257, one dose 10 µM, 48 h): 74.47%
IC50 ([2]; MCF7): 10 nM
IC50 ([2]; MCF7, 72 h): 12 nM
viability at 0.1 µM [2, 13]: 22%
viability at 1 µM [2, 13]: 21%
viability at 10 µM [2, 13]: 11%
cells undergoing apoptosis (early+late) ([8]; 50 nM): 27%
cells undergoing apoptosis (early+late) ([8]; 500 nM): 38.9%
viability at 0.05 µM [8, 14]: 69.2%
viability at 0.5 µM [8, 14]: 57%
formation of β-tubulin-EBI adduct [9]: formation of the EBI adduct was prevented

C=CCC1C(=O)N(c2cc(OC)c(OC)c(OC)c2)C1c1ccc(OC)c(O)c1 (stereo not drawn) [10p, 4-(3-Hydroxy-4-methoxyphenyl)-1-(3,4,5-trimethoxyphenyl)-3-allylazetidin-2-one]
compound remaining ([6]; all pH values (4, 7.4, 9), after 11 days): over 95%
remaining at 264 h, 14.6 µg/mL ([6]; pH 4.0): 98%
remaining at 264 h, 14.6 µg/mL ([6]; pH 7.4): 99%
remaining at 264 h, 14.6 µg/mL ([6]; pH 9.0): 96%
half-life at 14.6 µg/mL ([6]; pH range studied, medium not specified): > 24 h
remaining at 264 h, 41.3 µg/mL ([7]; human, Plasma, study over 264 h): 97%
GI50 [1, 11]: 17.6 nM
IC50 ([2]; MCF7, read-out: Antiproliferative Activity IC50, MCF-7, eight concentrations 0.001–50 μM, mean ± SEM, Table 3): 31 ± 2 nM

C=C(C)C1C(=O)N(c2cc(OC)c(OC)c(OC)c2)C1c1ccc(OC)cc1 (stereo not drawn) [9h, 4-(4-Methoxyphenyl)-1-(3,4,5-trimethoxyphenyl)-3-(prop-1-en-2-yl)azetidin-2-one]
cell death [5]: 30%
GI50 [1, 11]: 221 nM
IC50 ([2]; MCF7, MCF-7): 33 nM

C=C(C)C1C(=O)N(c2cc(OC)c(OC)c(OC)c2)C1c1ccc(OC)c(OP(=O)(O)O)c1 (stereo not drawn) [15a, 2-Methoxy-5-(4-oxo-3-(prop-1-en-2-yl)-1-(3,4,5-trimethoxyphenyl)azetidin-2-yl)-phenyl dihydrogen phosphate]
half-life at 14.6 µg/mL ([6]; pH 4): > 24 h
half-life at 14.6 µg/mL ([6]; pH 7.4): > 24 h
remaining at 24 h, 14.6 µg/mL ([6]; pH 4.0): 96%
remaining at 24 h, 14.6 µg/mL ([6]; pH 7.4): 98%
half-life at 41.3 µg/mL [7]: > 24 h
remaining at 24 h, 41.3 µg/mL ([7]; human, Plasma): 97%
GI50 [3]: 98.1 nM
GI50 [1, 11]: 123 nM
GI50 [4, 12]: > 100000 nM
IC50 ([2]; MCF7): 19 nM

C=CC=CC1C(=O)N(c2cc(OC)c(OC)c(OC)c2)C1c1ccc(OC)cc1 (stereo not drawn) [11h, 3-(Buta-1,3-dienyl)-4-(4-methoxyphenyl)-1-(3,4,5-trimethoxyphenyl)azetidin-2-one]
GI50 ([1]; M14, 48 h): 19.4 nM
GI50 ([4]; UACC-257, 48 h): 11200 nM
IC50 [2, 10]: 33 ± 5 nM
